Results taken from ChEMBL document CHEMBL1140446, “Designed multiple ligands. An emerging drug discovery paradigm” (J Med Chem, 2005).

How the values were obtained:
[1] = target: T1, Type-2 angiotensin II receptor (Homo sapiens, UniProt P50052)
T1 sequence (P50052 whole entry): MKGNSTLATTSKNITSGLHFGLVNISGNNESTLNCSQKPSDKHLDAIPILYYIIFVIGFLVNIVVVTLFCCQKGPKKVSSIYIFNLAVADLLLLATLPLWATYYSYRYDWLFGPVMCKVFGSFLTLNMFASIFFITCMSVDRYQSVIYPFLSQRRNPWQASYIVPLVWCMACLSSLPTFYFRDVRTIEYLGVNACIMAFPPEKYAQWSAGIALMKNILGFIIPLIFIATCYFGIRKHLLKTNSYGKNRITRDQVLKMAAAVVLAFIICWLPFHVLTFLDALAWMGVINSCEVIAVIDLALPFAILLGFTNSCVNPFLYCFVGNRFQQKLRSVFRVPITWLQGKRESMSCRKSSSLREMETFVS
Description: Inhibitory concentration against angiotensin II receptor, type 2

[2] = target: Endothelin receptor type B (Homo sapiens, UniProt P24530)
Description: Inhibitory concentration against endothelin receptor type B

Endothelin-1 receptor = target: T2, Endothelin-1 receptor (Homo sapiens, UniProt P25101); assay: Inhibitory concentration against endothelin receptor type A
T2 sequence (P25101 whole entry): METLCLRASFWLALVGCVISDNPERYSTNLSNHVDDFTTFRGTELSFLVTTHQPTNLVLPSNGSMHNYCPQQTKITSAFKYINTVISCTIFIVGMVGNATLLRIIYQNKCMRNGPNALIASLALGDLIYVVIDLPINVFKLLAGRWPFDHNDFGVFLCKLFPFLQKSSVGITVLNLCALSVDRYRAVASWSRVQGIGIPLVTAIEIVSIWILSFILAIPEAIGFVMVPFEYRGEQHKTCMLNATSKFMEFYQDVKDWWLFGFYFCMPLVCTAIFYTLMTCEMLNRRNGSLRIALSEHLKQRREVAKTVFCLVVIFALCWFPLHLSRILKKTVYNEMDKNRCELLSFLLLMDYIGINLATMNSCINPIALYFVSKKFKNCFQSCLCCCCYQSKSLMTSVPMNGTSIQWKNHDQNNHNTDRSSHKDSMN

[3] = target: T3, Type-1 angiotensin II receptor (Homo sapiens, UniProt P30556)
T3 sequence (P30556 whole entry): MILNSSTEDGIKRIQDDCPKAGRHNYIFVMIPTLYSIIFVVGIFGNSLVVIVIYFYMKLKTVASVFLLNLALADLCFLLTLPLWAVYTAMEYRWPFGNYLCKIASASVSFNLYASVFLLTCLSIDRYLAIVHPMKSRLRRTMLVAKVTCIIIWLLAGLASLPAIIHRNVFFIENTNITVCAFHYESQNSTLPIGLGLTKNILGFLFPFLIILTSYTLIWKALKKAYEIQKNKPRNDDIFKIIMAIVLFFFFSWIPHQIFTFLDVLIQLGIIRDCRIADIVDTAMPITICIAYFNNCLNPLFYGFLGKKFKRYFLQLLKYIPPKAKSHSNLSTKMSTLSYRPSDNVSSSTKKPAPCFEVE
Description: Inhibitory concentration against angiotensin II receptor, type 1

Endothelin receptor type B, sequence (P24530 whole entry): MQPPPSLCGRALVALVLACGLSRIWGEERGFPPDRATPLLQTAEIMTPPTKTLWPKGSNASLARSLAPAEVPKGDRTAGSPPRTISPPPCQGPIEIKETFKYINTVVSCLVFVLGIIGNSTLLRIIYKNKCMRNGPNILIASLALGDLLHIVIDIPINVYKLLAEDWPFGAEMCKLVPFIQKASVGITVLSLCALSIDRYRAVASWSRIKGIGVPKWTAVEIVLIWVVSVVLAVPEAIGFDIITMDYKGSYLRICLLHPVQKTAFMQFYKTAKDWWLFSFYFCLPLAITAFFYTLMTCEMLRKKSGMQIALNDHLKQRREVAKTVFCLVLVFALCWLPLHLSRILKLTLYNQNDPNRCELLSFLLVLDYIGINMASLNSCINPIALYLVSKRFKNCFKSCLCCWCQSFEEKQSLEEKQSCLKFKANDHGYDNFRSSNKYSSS

Question: CCCc1cc(Cn2c(CC)nc3c(C)cc(C)nc32)ccc1OC(C(=O)NS(=O)(=O)c1ccc(C(C)C)cc1)c1ccc2c(c1)OCC2 (centres undefined) was tested. Which IC50 [1] did it give?
Answer: 32 nM

Question: And the IC50 [2]?
Answer: 60 nM

Question: And the IC50 (Endothelin-1 receptor)?
Answer: 24 nM

Question: And the IC50 [3]?
Answer: 13 nM
